Test results reported in patent US20250082720A1, “NEW PEPTIDE AND USES THEREOF” (Neo Cremar Co., Ltd., priority 2021, published 2025).

Experiments:
Type in all cases: cell-based, mouse
C2C12 cells [1] = assay: C2C12 myoblast proliferation (MTT method)
Procedure: C2C12 cells, a mouse myoblast line, were cultured in Dulbecco's Modified Eagle's Medium (DMEM)+10% fetal bovine serum (FBS)+1% penicillin/streptomycin (P/S). To validate the effect of MIF peptide, C2C12 cells (2×10^3 cells/ml) were placed in a 12 well cell culture dish and attached for 24 hours, and MIF2 or Ac-MIF2-NH2 peptide (1000 nM) was treated for 1 day to observe cell proliferation by MTT method. The medium was replaced every 2 days, and the cells were cultured at 37° C.
To validate cell proliferation, the culture medium of the cells was removed, the cells were washed with DMEM, 500 μl of MTT reagent (0.5 mg/ml) dissolved in phosphate buffered saline (PBS) was added to each well, and the cells were left at 37° C. for 1 hour. The reaction solution was removed, and 1000 μl of DMSO was added to each well. Purple formazan crystals were completely dissolved in DMSO, and the absorbance was measured at 540 nm.

C2C12 cells [2] = assay: Scratch experiment, degree of cell recovery; conditions: C2C12 100% grown, 1000 nM peptide, 1 day
Procedure: When the C2C12 cells were 100% grown, cells were scratches on the surface, treated with 1000 nM MIF2 or Ac-MIF2-NH2 peptides, and cultured for 1 day, followed by observation for a degree of cell recovery.

C2C12 cells [3] = assay: Myodifferentiation: root canal formation and fusion index (Giemsa staining)
Procedure: When C2C12 cells were 70% grown, media were replaced with myodifferentiation medium added with MSTN protein (1 ng), Ac-MIF2-NH2 (1000 nM), and Ac-MIF2-NH2 (1000 nM)+MSTN protein (1 ng) from proliferation medium, followed by culture for 3 days.
When the cells grew more than 70% for differentiation of myoblasts into myocytes, they were cultured for 3 days by replacing with a differentiation medium (DMEM+2% FBS+1% P/S). The medium was replaced once daily, and the cells were cultured at 37° C.
The cell medium was removed, and the cells were washed with PBS. After washing, a methanol: PBS reagent in a 1:1 volume ratio was treated, followed by fixation for 2 minutes. Additionally, after a methanol: PBS reagent in a 2:1 volume ratio was added, fixation was followed for additional 2 minutes. After 2 minutes, 0.04% Giemsa reagent was added, and then the cells were left for 30 minutes, washed with PBS after 30 minutes, and observed under a microscope, with 3 photographs taken for each cell (300×). In the photographs taken, the number of fused nuclei in the root canal cells was counted, the number of nuclei of total cells was counted, and the number of fused nuclei was divided by the number of nuclei of the total cells to obtain the % value.

C2C12 cells [4] = assay: Expression of myodifferentiation-related factors (real-time PCR, Western blot, immunocytochemistry)
Procedure: After adding 1 ml of TRIzol™ reagent, the cells were crushed using a sonicator. After centrifugation of the crushed sample (12,000 rpm, 10 min, 4° C.), the supernatant was transferred to a new tube, added with 200 μl of chloroform, and left at room temperature for 10 minutes. After 10 minutes, centrifugation (12,000 rpm, 10 min, 4° C.) was performed, yielded a transparent supernatant. Next, 500 μl of isopropanol was added, the mixture was left for 10 minutes, and centrifugation was performed to obtain RNA pellets. After washing by adding 70% ethanol (distilled water treated with ethanol+diethylpyrocarbonate (hereinafter referred to as DEPC)) to the RNA pellets, complete removal and drying were followed. The dried transparent RNA was added with DEPC-treated distilled water and then stored at −80° C. Total RNA volume was measured by nanodrop, and the 18s and 28s bands were detected in 1.2% agarose gel. cDNA was synthesized with 2 μg of total RNA, random hexamer primers, and reverse transcriptase (25° C.: 10 min, 37° C.: 120 min, 85° C.: 5 min).
Real-time PCR (RT-PCR) was performed for detecting gene expression. For observation of real-time gene expression, gene expression was analyzed using the Power SYBR Green PCR Master Mix, which includes fluorescent materials of SYBR green (7500 Real-time PCR system). The PCR primer was designed with Primer 3 software (http://frodo.wi.mit.edu) according to the nucleotide sequence secured from NCBI GenBank. PCR was performed 40 times at 95° C. for 10 minutes, again at 95° C. for 33 seconds, at gene primer temperature (tm) for 33 seconds, and at 72° C. for 33 seconds. Gene expression values were analyzed through the analysis of c(t) values obtained through real-time PCR analysis (fold change 2-ΔΔCt formula). Setting the gene expression value of the untreated cells to 1, the gene expression value of the treated cells was calculated. In the analysis of gene c(t) values, normalization was conducted with the glyceraldehyde-3-phosphate dehydrogenase (GAPDH).
The medium of cultured C2C12 cells was removed and washed once with PBS. The washed cells were treated with 4% formaldehyde (Sigma), fixed for 15 minutes, then washed using PBS, added with 0.2% trypton X-100 (Sigma), and left for 5 minutes. After washing again using PBS, adding 1% normal goat serum, and leaving for 30 minutes, the primary antibody (MYOD, myogenin (MYOG): myosin light chain (MYL2); 1:50) was added to carry out a reaction at 4° C. for 14 hours. The antibodies were removed, washing was performed 3 times with PBS for 10 minutes, and then the cells were left with secondary antibody (Alexa Fluor 488 goat anti-Mouse & rabbit SFX kit t) for 1 hour. After 1 hour, the antibodies were removed, washing was performed with PBS for 10 minutes, the nuclei were stained with 4′,6-diamidino-2-phenylindol (DAPI), and the expression of the proteins was observed using fluorescence microscopy.
(1) The medium of cultured C2C12 cells was removed, followed by washing with PBS. After adding LIPA buffer and protease inhibitor to the washed cells, the proteins included in the supernatant were collected after centrifugation for 10 minutes at 12000 rpm. 40 μg of the extracted proteins were subjected to electrophoresis in 8 to 10% acrylamide gel and then transferred to a polyvinylidene fluoride (PVDF) membrane (Milipore). These were blocked with 3% skim milk or bovine serum albumin (BSA) at room temperature for 1 hour. Afterwards, primary antibody diluted in 1% skim milk or BSA (Pax7; 1:500, MYOD; 1:500, MYOG; 1:400, MYL2; 1:1000, MYH; 1:500, MSTN; 1:1000, β-actin; 1:1000, MuRF1; 1:400, and Atrogin; 1:1:400) was added and reacted at 4° C. for over 16 hours. After 16 hours, cells were washed three times with TBST (Tris-buffered saline with Tween 20) and reacted with secondary antibody with horseradish peroxidase (HRP) conjugated at room temperature for 1 hour. […]

[5] = C2C12 differentiation, versus control
[6] = C2C12 myodifferentiation, FIG. 6

Substance | increase in cell proliferation compared to cells without peptide treatment (C2C12 cells [1]; C2C12, peptide 1000 nM, 1 day, MTT, FIG. 4) [%] | increase in scratch recovery degree compared to untreated cells (C2C12 cells [2]) [%] | increase in fusion index compared to untreated cells (C2C12 cells [3]; C2C12, differentiation medium with peptide, 3 days) [%] | expression of MSTN mRNA and proteins (C2C12 cells [4]; [5]) | mRNA and protein expression of MYOD, MYOG, MYL2, and MYH (C2C12 cells [4]; [5]) | expression of ACVRIIB mRNA (C2C12 cells [4]; [6]) | expression of MuRF1 and ACVRIIB proteins (C2C12 cells [4]; [6]) | proliferation of cells compared to untreated cells (C2C12 cells [1]; C2C12, MSTN protein in proliferation medium, FIG. 3) | differentiation of cells compared to untreated cells (C2C12 cells [3]; C2C12, MSTN protein in differentiation medium, FIG. 3) | root canal formation compared to untreated cells (C2C12 cells [3]; C2C12, differentiation medium, 3 days)
VDFEAGDWFW [MIF2] | 6 | 22 | 12 | did not show any significant differences | increased | decreased | decreased | – | – | –
MSTN protein: myostatin protein that inhibits the proliferation and differentiation of myoblasts [reference compound] | – | – | – | – | – | – | – | reduced | reduced | reduced
